Measured values from patent US20230085307A1, “PYRIDAZINONE COMPOUND AND HERBICIDE” (NISSAN CHEMICAL CORPORATION, priority 2019, published 2023).

Columns and labels:
blackgrass [1] = assay: Test Example 5: herbicidal effect by foliage application, plastic box (Table 20, symbol J); format: in vivo, blackgrass (Alopecurus myosuroides); settings: for Herbicidal effect by foliage application, J: blackgrass: amount of applied herbicide 320 g/ha, foliage application after 14-day growth, evaluated three weeks after application; for J (blackgrass) herbicidal effect grade: foliage application, 320 g/ha, evaluated 3 weeks after application
Summary of the method: (§1)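 Sow seeds spot-wise in sterilized diluvial soil; cover with ~1.5 cm soil. Grow 14 days in greenhouse, 25° C. to 30° C. Spray foliage with emulsion diluted to predetermined amount. Rate effect after 3 weeks.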

chickweed [2] = assay: Test Example 4: herbicidal effect by soil treatment (Table 19, symbol P); format: in vivo, common chickweed (Stellaria media); settings: amount of applied herbicide 320 g/ha
Summary of the method: (§2)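 Soil-surface application: an emulsion agent diluted with water to the predetermined dose is sprayed uniformly over seeds lying under roughly 1.5 cm of sterilized diluvial soil. Boxes stay in a greenhouse at 25° C. to 30° C. Three weeks later, each species is graded on previously defined criteria.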

Japanese bulrush = assay: Test Example 2: herbicidal activity, application during weed generation under submerged conditions (Table 17, symbol B); format: in vivo, Japanese bulrush (Schoenoplectus juncoides); settings: AAH 320 g/ha; application during weed generation, submerged conditions
Summary of the method: (§3)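 Effect on each weed is rated three weeks post-treatment, using the same scoring criteria as the preceding test. Plants grow from mixed-sown seed in flooded alluvial soil (4 cm water) at 25° C. to 30° C., and are treated at one to two leaves with diluted emulsion dropped onto the water.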

lambsquarters = assay: Test Example 4: herbicidal effect by soil treatment (Table 19, symbol O); format: in vivo, lambsquarters (Chenopodium album); settings: amount of applied herbicide 320 g/ha
Summary of the method: as §2

barnyard grass [3] = assay: Test Example 4: herbicidal effect by soil treatment (Table 19, symbol H); format: in vivo, barnyard grass (Echinochloa crus-galli); settings: amount of applied herbicide 320 g/ha
Summary of the method: as §2

Italian ryegrass [4] = assay: Test Example 5: herbicidal effect by foliage application, plastic box (Table 20, symbol K); format: in vivo, Italian ryegrass (Lolium multiflorum); settings: for Herbicidal effect by foliage application, K: Italian ryegrass: amount of applied herbicide 320 g/ha, foliage application after 14-day growth, evaluated three weeks after application; for K (Italian ryegrass) herbicidal effect grade: foliage application, 320 g/ha, evaluated 3 weeks after application
Summary of the method: as §1

velvetleaf [5] = assay: Test Example 4: herbicidal effect by soil treatment (Table 19, symbol M); format: in vivo, velvetleaf (Abutilon theophrasti); settings: amount of applied herbicide 320 g/ha
Summary of the method: as §2

persian speedwell = assay: Test Example 5: herbicidal effect by foliage application, plastic box (Table 20, symbol R); format: in vivo, Persian speedwell (Veronica persica); settings: for Herbicidal effect by foliage application, R: persian speedwell: amount of applied herbicide 320 g/ha, foliage application after 14-day growth, evaluated three weeks after application; for R (persian speedwell) herbicidal effect grade: foliage application, 320 g/ha, evaluated 3 weeks after application
Summary of the method: as §1

redroot pigweed = assay: Test Example 5: herbicidal effect by foliage application, plastic box (Table 20, symbol N); format: in vivo, redroot pigweed (Amaranthus retroflexus); settings: for Herbicidal effect by foliage application, N: redroot pigweed: amount of applied herbicide 320 g/ha, foliage application after 14-day growth, evaluated three weeks after application; for N (redroot pigweed) herbicidal effect grade: foliage application, 320 g/ha, evaluated 3 weeks after application
Summary of the method: as §1

Italian ryegrass [6] = assay: Test Example 4: herbicidal effect by soil treatment (Table 19, symbol K); format: in vivo, Italian ryegrass (Lolium multiflorum); settings: amount of applied herbicide 320 g/ha
Summary of the method: as §2

chickweed [7] = assay: Test Example 5: herbicidal effect by foliage application, plastic box (Table 20, symbol P); format: in vivo, common chickweed (Stellaria media); settings: for Herbicidal effect by foliage application, P: chickweed: amount of applied herbicide 320 g/ha, foliage application after 14-day growth, evaluated three weeks after application; for P (chickweed) herbicidal effect grade: foliage application, 320 g/ha, evaluated 3 weeks after application
Summary of the method: as §1

late watergrass = assay: Test Example 2: herbicidal activity, application during weed generation under submerged conditions (Table 17, symbol A); format: in vivo, late watergrass (Echinochloa oryzicola); settings: AAH 320 g/ha; application during weed generation, submerged conditions
Summary of the method: as §3

barnyard grass [8] = assay: Test Example 3: herbicidal effect by foliage application, Wagner pot (Table 18, symbol H); format: in vivo, barnyard grass (Echinochloa crus-galli); settings: for herbicidal effect on barnyard grass (H): 320 g/ha; for Herbicidal effect on H (barnyard grass), foliage application: amount of applied herbicide 320 g/ha
Summary of the method: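 Plants were sown in alluvial soil held under 0.1–0.5 cm standing water and grown 14 days in a greenhouse at 25–30 °C. An emulsifiable formulation, water-diluted to the set dose, was then sprayed onto the foliage, and effects were scored three weeks later using previously defined criteria.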

green foxtail = assay: Test Example 4: herbicidal effect by soil treatment (Table 19, symbol G); format: in vivo, green foxtail (Setaria viridis); settings: amount of applied herbicide 320 g/ha
Summary of the method: as §2

velvetleaf [9] = assay: Test Example 5: herbicidal effect by foliage application, plastic box (Table 20, symbol M); format: in vivo, velvetleaf (Abutilon theophrasti); settings: for Herbicidal effect by foliage application, M: velvetleaf: amount of applied herbicide 320 g/ha, foliage application after 14-day growth, evaluated three weeks after application; for M (velvetleaf) herbicidal effect grade: foliage application, 320 g/ha, evaluated 3 weeks after application
Summary of the method: as §1

blackgrass [10] = assay: Test Example 4: herbicidal effect by soil treatment (Table 19, symbol J); format: in vivo, blackgrass (Alopecurus myosuroides); settings: amount of applied herbicide 320 g/ha
Summary of the method: as §2

wild oat = assay: Test Example 4: herbicidal effect by soil treatment (Table 19, symbol I); format: in vivo, wild oat (Avena fatua); settings: amount of applied herbicide 320 g/ha
Summary of the method: as §2

Compound	Herbicidal effect by foliage application, J: blackgrass (blackgrass [1])	P: chickweed, herbicidal effect grade (chickweed [2])	herbicidal effect rating, B: Japanese bulrush (Japanese bulrush)	O: lambsquarters, herbicidal effect grade (lambsquarters)	H: barnyard grass, herbicidal effect grade (barnyard grass [3])	Herbicidal effect by foliage application, K: Italian ryegrass (Italian ryegrass [4])	M: velvetleaf, herbicidal effect grade (velvetleaf [5])	Herbicidal effect by foliage application, R: persian speedwell (persian speedwell)	Herbicidal effect by foliage application, N: redroot pigweed (redroot pigweed)	K: Italian ryegrass, herbicidal effect grade (Italian ryegrass [6])	Herbicidal effect by foliage application, P: chickweed (chickweed [7])	herbicidal effect rating, A: late watergrass (late watergrass)	herbicidal effect on barnyard grass (H) (barnyard grass [8])	G: green foxtail, herbicidal effect grade (green foxtail)	Herbicidal effect by foliage application, M: velvetleaf (velvetleaf [9])	J: blackgrass, herbicidal effect grade (blackgrass [10])	I: wild oat, herbicidal effect grade (wild oat)	J (blackgrass) herbicidal effect grade (blackgrass [1])	K (Italian ryegrass) herbicidal effect grade (Italian ryegrass [4])	R (persian speedwell) herbicidal effect grade (persian speedwell)	further results
CCCC(=O)Oc1c(C)nn(C)c(=O)c1-c1c(-c2ccccc2OC)sc2cc(F)c(F)cc12 [5-012]	4 (Herbicidal rate of 70% or more and less than 90%)	3 (Herbicidal rate of 40% or more and less than 70%)	2 (Herbicidal rate of 20% or more and less than 40%)	5 (Herbicidal rate of 90% or more (almost completely withered))	1 (Herbicidal rate of 5% or more and less than 20%)	0 (Herbicidal rate of 5% or less (almost no effect))	3 (Herbicidal rate of 40% or more and less than 70%)	3 (Herbicidal rate of 40% or more and less than 70%)	4 (Herbicidal rate of 70% or more and less than 90%)	0 (Herbicidal rate of 5% or less (almost no effect))	5 (Herbicidal rate of 90% or more (almost completely withered))	0 (Herbicidal rate of 5% or less (almost no effect))	4 (Herbicidal rate of 70% or more and less than 90%)	3 (Herbicidal rate of 40% or more and less than 70%)	3 (Herbicidal rate of 40% or more and less than 70%)	3 (Herbicidal rate of 40% or more and less than 70%)	3 (Herbicidal rate of 40% or more and less than 70%)	–	–	–	–
COc1ccc(-c2sc3cc(Cl)c(Cl)cc3c2-c2c(O)c(C)nn(C)c2=O)cc1 [5-043]	0 (Herbicidal rate of 5% or less (almost no effect))	3 (Herbicidal rate of 40% or more and less than 70%)	0 (Herbicidal rate of 5% or less (almost no effect))	0 (Herbicidal rate of 5% or less (almost no effect))	0 (Herbicidal rate of 5% or less (almost no effect))	0 (Herbicidal rate of 5% or less (almost no effect))	0 (Herbicidal rate of 5% or less (almost no effect))	5 (Herbicidal rate of 90% or more (almost completely withered))	3 (Herbicidal rate of 40% or more and less than 70%)	0 (Herbicidal rate of 5% or less (almost no effect))	5 (Herbicidal rate of 90% or more (almost completely withered))	2 (Herbicidal rate of 20% or more and less than 40%)	3 (Herbicidal rate of 40% or more and less than 70%)	0 (Herbicidal rate of 5% or less (almost no effect))	4 (Herbicidal rate of 70% or more and less than 90%)	0 (Herbicidal rate of 5% or less (almost no effect))	0 (Herbicidal rate of 5% or less (almost no effect))	–	–	–	–
COCCOc1ccc(-c2oc3ccc(F)cc3c2-c2c(O)c(C)nn(C)c2=O)cc1 [9-045]	–	1 (Herbicidal rate of 5% or more and less than 20%)	3 (Herbicidal rate of 40% or more and less than 70%)	5 (Herbicidal rate of 90% or more (almost completely withered))	5 (Herbicidal rate of 90% or more (almost completely withered))	–	5 (Herbicidal rate of 90% or more (almost completely withered))	–	–	5 (Herbicidal rate of 90% or more (almost completely withered))	–	3 (Herbicidal rate of 40% or more and less than 70%)	–	5 (Herbicidal rate of 90% or more (almost completely withered))	–	5 (Herbicidal rate of 90% or more (almost completely withered))	0 (Herbicidal rate of 5% or less (almost no effect))	5 (Herbicidal rate of 90% or more (almost completely withered))	5 (Herbicidal rate of 90% or more (almost completely withered))	5 (Herbicidal rate of 90% or more (almost completely withered))	N (redroot pigweed) herbicidal effect grade (redroot pigweed): 5 (Herbicidal rate of 90% or more (almost completely withered)); P (chickweed) herbicidal effect grade (chickweed [7]): 5 (Herbicidal rate of 90% or more (almost completely withered)); Herbicidal effect on H (barnyard grass), foliage application (barnyard grass [8]): 5 (Herbicidal rate of 90% or more (almost completely withered)); M (velvetleaf) herbicidal effect grade (velvetleaf [9]): 5 (Herbicidal rate of 90% or more (almost completely withered))
CCCOc1ccc(-c2oc3ccc(C)cc3c2-c2c(O)c(C)nn(C)c2=O)cc1 [9-049]	–	4 (Herbicidal rate of 70% or more and less than 90%)	4 (Herbicidal rate of 70% or more and less than 90%)	4 (Herbicidal rate of 70% or more and less than 90%)	4 (Herbicidal rate of 70% or more and less than 90%)	–	3 (Herbicidal rate of 40% or more and less than 70%)	–	–	5 (Herbicidal rate of 90% or more (almost completely withered))	–	5 (Herbicidal rate of 90% or more (almost completely withered))	–	4 (Herbicidal rate of 70% or more and less than 90%)	–	0 (Herbicidal rate of 5% or less (almost no effect))	0 (Herbicidal rate of 5% or less (almost no effect))	4 (Herbicidal rate of 70% or more and less than 90%)	5 (Herbicidal rate of 90% or more (almost completely withered))	5 (Herbicidal rate of 90% or more (almost completely withered))	N (redroot pigweed) herbicidal effect grade (redroot pigweed): 5 (Herbicidal rate of 90% or more (almost completely withered)); P (chickweed) herbicidal effect grade (chickweed [7]): 5 (Herbicidal rate of 90% or more (almost completely withered)); Herbicidal effect on H (barnyard grass), foliage application (barnyard grass [8]): 5 (Herbicidal rate of 90% or more (almost completely withered)); M (velvetleaf) herbicidal effect grade (velvetleaf [9]): 5 (Herbicidal rate of 90% or more (almost completely withered))
